Laboratory results taken from patent US20230085307A1, “PYRIDAZINONE COMPOUND AND HERBICIDE” (NISSAN CHEMICAL CORPORATION, priority 2019, published 2023).

Tests used:
[1] = tested on: late watergrass; assay: Test Example 1: herbicidal activity, application before weed generation under submerged conditions (Table 16, symbol A); type: in vivo, late watergrass (Echinochloa oryzicola); conditions: amount of applied herbicide 320 g/ha
In short: (§1)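 Alluvial soil was flooded to 4 cm depth, weed seeds were sown mixed and 2.5-leaf rice seedlings were transplanted. On sowing day, the compound's emulsion, diluted in water to a set dose, was applied to the water surface. Plants grew at 25–30 °C and were scored 0–5 after three weeks.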

[2] = tested on: Japanese bulrush; assay: Test Example 1: herbicidal activity, application before weed generation under submerged conditions (Table 16, symbol B); type: in vivo, Japanese bulrush (Schoenoplectus juncoides); conditions: amount of applied herbicide 320 g/ha
In short: as §1

[3] = tested on: late watergrass; assay: Test Example 2: herbicidal activity, application during weed generation under submerged conditions (Table 17, symbol A); type: in vivo, late watergrass (Echinochloa oryzicola); conditions: AAH 320 g/ha; application during weed generation, submerged conditions
In short: (§2)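 Steps: fill Wagner pots with alluvial soil; add water to give 4 cm depth; sow the species mixed; grow under glass at 25–30° C.; at 1–2 leaves apply water-diluted emulsion formulation to the water surface at a fixed herbicide amount; score after 3 weeks.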

[4] = tested on: oval-leafed pondweed; assay: Test Example 2: herbicidal activity, application during weed generation under submerged conditions (Table 17, symbol C); type: in vivo, oval-leafed pondweed (Monochoria vaginalis); conditions: AAH 320 g/ha; application during weed generation, submerged conditions
In short: as §2

[5] = tested on: barnyard grass; assay: Test Example 3: herbicidal effect by foliage application, Wagner pot (Table 18, symbol H); type: in vivo, barnyard grass (Echinochloa crus-galli); conditions: for herbicidal effect on barnyard grass (H): 320 g/ha
In short: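 Plants were sown in alluvial soil held under 0.1–0.5 cm standing water and grown 14 days in a greenhouse at 25–30 °C. An emulsifiable formulation, water-diluted to the set dose, was then sprayed onto the foliage, and effects were scored three weeks later using previously defined criteria.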

[6] = tested on: barnyard grass; assay: Test Example 4: herbicidal effect by soil treatment (Table 19, symbol H); type: in vivo, barnyard grass (Echinochloa crus-galli); conditions: amount of applied herbicide 320 g/ha
In short: (§3)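 Three weeks of greenhouse growth at 25° C. to 30° C. followed a uniform surface spray of water-diluted emulsion at a predetermined herbicide amount. Seeds had been sown beforehand under about 1.5 cm of sterilized diluvial soil. Grading followed criteria set out in an earlier test.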

[7] = tested on: Italian ryegrass; assay: Test Example 4: herbicidal effect by soil treatment (Table 19, symbol K); type: in vivo, Italian ryegrass (Lolium multiflorum); conditions: amount of applied herbicide 320 g/ha
In short: as §3

[8] = tested on: windgrass; assay: Test Example 4: herbicidal effect by soil treatment (Table 19, symbol L); type: in vivo, windgrass (Apera spica-venti); conditions: amount of applied herbicide 320 g/ha
In short: as §3

[9] = tested on: velvetleaf; assay: Test Example 4: herbicidal effect by soil treatment (Table 19, symbol M); type: in vivo, velvetleaf (Abutilon theophrasti); conditions: amount of applied herbicide 320 g/ha
In short: as §3

[10] = tested on: lambsquarters; assay: Test Example 4: herbicidal effect by soil treatment (Table 19, symbol O); type: in vivo, lambsquarters (Chenopodium album); conditions: amount of applied herbicide 320 g/ha
In short: as §3

[11] = tested on: chickweed; assay: Test Example 4: herbicidal effect by soil treatment (Table 19, symbol P); type: in vivo, common chickweed (Stellaria media); conditions: amount of applied herbicide 320 g/ha
In short: as §3

[12] = tested on: green foxtail; assay: Test Example 5: herbicidal effect by foliage application, plastic box (Table 20, symbol G); type: in vivo, green foxtail (Setaria viridis); conditions: 320 g/ha; for herbicidal effect on green foxtail (G) / G: green foxtail, herbicidal effect grade: foliage application, three weeks after application
In short: (§4)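 Plants sown in sterilized diluvial soil and grown 14 days in a greenhouse at 25° C to 30° C, then sprayed on the foliage with the compound's emulsion diluted in water to a predetermined herbicide amount. Injury to weeds and crops scored three weeks after application on a visual rating scale.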

[13] = tested on: windgrass; assay: Test Example 5: herbicidal effect by foliage application, plastic box (Table 20, symbol L); type: in vivo, windgrass (Apera spica-venti); conditions: 320 g/ha; for herbicidal effect on windgrass (L) / L: windgrass, herbicidal effect grade: foliage application, three weeks after application
In short: as §4

[14] = tested on: persian speedwell; assay: Test Example 5: herbicidal effect by foliage application, plastic box (Table 20, symbol R); type: in vivo, Persian speedwell (Veronica persica); conditions: 320 g/ha; for herbicidal effect on persian speedwell (R) / R: persian speedwell, herbicidal effect grade: foliage application, three weeks after application
In short: as §4

[15] = tested on: redroot pigweed; assay: Test Example 5: herbicidal effect by foliage application, plastic box (Table 20, symbol N); type: in vivo, redroot pigweed (Amaranthus retroflexus); conditions: 320 g/ha; for N: redroot pigweed, herbicidal effect grade: foliage application, three weeks after application
In short: as §4

[16] = tested on: chickweed; assay: Test Example 5: herbicidal effect by foliage application, plastic box (Table 20, symbol P); type: in vivo, common chickweed (Stellaria media); conditions: 320 g/ha; for P: chickweed, herbicidal effect grade: foliage application, three weeks after application
In short: as §4

[17] = tested on: persian speedwell; assay: Test Example 4: herbicidal effect by soil treatment (Table 19, symbol R); type: in vivo, Persian speedwell (Veronica persica); conditions: amount of applied herbicide 320 g/ha
In short: as §3

[18] = amount of applied herbicide 320 g/ha
[19] = foliage application after 14-day growth, evaluated three weeks after application

SMILES | Herbicidal effect, A: late watergrass [1] | Herbicidal effect, B: Japanese bulrush [2] | herbicidal effect rating, A: late watergrass [3] | herbicidal effect rating, C: oval-leafed pondweed [4] | herbicidal effect on barnyard grass (H) [5] | H: barnyard grass, herbicidal effect grade [6] | K: Italian ryegrass, herbicidal effect grade [7] | L: windgrass, herbicidal effect grade [8] | M: velvetleaf, herbicidal effect grade [9] | O: lambsquarters, herbicidal effect grade [10] | P: chickweed, herbicidal effect grade [11] | herbicidal effect on green foxtail (G) [12] | herbicidal effect on windgrass (L) [13] | herbicidal effect on persian speedwell (R) [14] | G: green foxtail, herbicidal effect grade [12] | L: windgrass, herbicidal effect grade [13] | N: redroot pigweed, herbicidal effect grade [15] | P: chickweed, herbicidal effect grade [16] | R: persian speedwell, herbicidal effect grade [14] | also measured
COc1cc(F)ccc1-c1sc2cc(C)c(C)cc2c1-c1c(O)c(C)nn(C)c1=O [5-101] | 3 (Herbicidal rate of 40% or more and less than 70%) | 3 (Herbicidal rate of 40% or more and less than 70%) | 0 (Herbicidal rate of 5% or less (almost no effect)) | 2 (Herbicidal rate of 20% or more and less than 40%) | 5 (Herbicidal rate of 90% or more (almost completely withered)) | 0 (Herbicidal rate of 5% or less (almost no effect)) | 4 (Herbicidal rate of 70% or more and less than 90%) | 0 (Herbicidal rate of 5% or less (almost no effect)) | 0 (Herbicidal rate of 5% or less (almost no effect)) | 2 (Herbicidal rate of 20% or more and less than 40%) | 0 (Herbicidal rate of 5% or less (almost no effect)) | 4 (Herbicidal rate of 70% or more and less than 90%) | 3 (Herbicidal rate of 40% or more and less than 70%) | 4 (Herbicidal rate of 70% or more and less than 90%) |  |  |  |  |  | 
CCCC(=O)Oc1c(C)nn(C)c(=O)c1-c1c(-c2ccc(OC(C)C)cc2)sc2cc(F)ccc12 [3-020] | 3 (Herbicidal rate of 40% or more and less than 70%) | 3 (Herbicidal rate of 40% or more and less than 70%) | 1 (Herbicidal rate of 5% or more and less than 20%) | 2 (Herbicidal rate of 20% or more and less than 40%) |  |  |  |  |  |  |  |  |  |  | 0 (Herbicidal rate of 5% or less (almost no effect)) | 0 (Herbicidal rate of 5% or less (almost no effect)) | 4 (Herbicidal rate of 70% or more and less than 90%) | 5 (Herbicidal rate of 90% or more (almost completely withered)) | 5 (Herbicidal rate of 90% or more (almost completely withered)) | herbicidal effect on H: barnyard grass [5, 18]: 4 (Herbicidal rate of 70% or more and less than 90%); herbicidal effect, H: barnyard grass [6]: 0 (Herbicidal rate of 5% or less (almost no effect)); herbicidal effect, K: Italian ryegrass [7]: 0 (Herbicidal rate of 5% or less (almost no effect)); herbicidal effect, L: windgrass [8]: 0 (Herbicidal rate of 5% or less (almost no effect)); herbicidal effect, M: velvetleaf [9]: 0 (Herbicidal rate of 5% or less (almost no effect)); herbicidal effect, O: lambsquarters [10]: 0 (Herbicidal rate of 5% or less (almost no effect)); herbicidal effect, P: chickweed [11]: 0 (Herbicidal rate of 5% or less (almost no effect))
CCCC(=O)Oc1c(C)nn(C)c(=O)c1-c1c(-c2ccc(C#N)cc2)sc2c(F)cccc12 [4-053] | 5 (Herbicidal rate of 90% or more (almost completely withered)) | 3 (Herbicidal rate of 40% or more and less than 70%) | 4 (Herbicidal rate of 70% or more and less than 90%) |  | 4 (Herbicidal rate of 70% or more and less than 90%) |  |  |  |  |  |  |  |  |  |  |  |  |  |  | Herbicidal effect by soil treatment, H: barnyard grass [6]: 0 (Herbicidal rate of 5% or less (almost no effect)); Herbicidal effect by soil treatment, K: Italian ryegrass [7]: 4 (Herbicidal rate of 70% or more and less than 90%); Herbicidal effect by soil treatment, L: windgrass [8]: 0 (Herbicidal rate of 5% or less (almost no effect)); Herbicidal effect by soil treatment, M: velvetleaf [9]: 2 (Herbicidal rate of 20% or more and less than 40%); Herbicidal effect by soil treatment, O: lambsquarters [10]: 3 (Herbicidal rate of 40% or more and less than 70%); Herbicidal effect by soil treatment, P: chickweed [11]: 4 (Herbicidal rate of 70% or more and less than 90%); Herbicidal effect by soil treatment, R: persian speedwell [17]: 5 (Herbicidal rate of 90% or more (almost completely withered)); herbicidal effect on G: green foxtail (evaluation grade 0-5) [12, 19]: 0 (Herbicidal rate of 5% or less (almost no effect)); herbicidal effect on L: windgrass (evaluation grade 0-5) [13, 19]: 4 (Herbicidal rate of 70% or more and less than 90%); herbicidal effect on N: redroot pigweed (evaluation grade 0-5) [15, 19]: 5 (Herbicidal rate of 90% or more (almost completely withered)); herbicidal effect on P: chickweed (evaluation grade 0-5) [16, 19]: 5 (Herbicidal rate of 90% or more (almost completely withered)); herbicidal effect on R: persian speedwell (evaluation grade 0-5) [14, 19]: 5 (Herbicidal rate of 90% or more (almost completely withered))
Cc1nn(C)c(=O)c(-c2c(-c3ccc(OC(C)C)cc3)oc3ccc(F)cc23)c1O [9-025] | 5 (Herbicidal rate of 90% or more (almost completely withered)) | 5 (Herbicidal rate of 90% or more (almost completely withered)) | 4 (Herbicidal rate of 70% or more and less than 90%) | 4 (Herbicidal rate of 70% or more and less than 90%) |  | 4 (Herbicidal rate of 70% or more and less than 90%) | 5 (Herbicidal rate of 90% or more (almost completely withered)) |  | 3 (Herbicidal rate of 40% or more and less than 70%) | 4 (Herbicidal rate of 70% or more and less than 90%) | 0 (Herbicidal rate of 5% or less (almost no effect)) | 0 (Herbicidal rate of 5% or less (almost no effect)) | 0 (Herbicidal rate of 5% or less (almost no effect)) | 5 (Herbicidal rate of 90% or more (almost completely withered)) |  |  |  |  |  | Herbicidal effect on H (barnyard grass), foliage application [5, 18]: 5 (Herbicidal rate of 90% or more (almost completely withered)); R: persian speedwell, herbicidal effect grade [17]: 4 (Herbicidal rate of 70% or more and less than 90%)
COc1ccccc1-c1sc2cc(OCC3CC3(F)F)ccc2c1-c1c(O)c(C)nn(C)c1=O (stereo not shown) [3-131] | 5 (Herbicidal rate of 90% or more (almost completely withered)) | 5 (Herbicidal rate of 90% or more (almost completely withered)) | 5 (Herbicidal rate of 90% or more (almost completely withered)) | 5 (Herbicidal rate of 90% or more (almost completely withered)) | 5 (Herbicidal rate of 90% or more (almost completely withered)) | 2 (Herbicidal rate of 20% or more and less than 40%) | 5 (Herbicidal rate of 90% or more (almost completely withered)) | 3 (Herbicidal rate of 40% or more and less than 70%) | 3 (Herbicidal rate of 40% or more and less than 70%) | 5 (Herbicidal rate of 90% or more (almost completely withered)) | 4 (Herbicidal rate of 70% or more and less than 90%) |  |  |  | 5 (Herbicidal rate of 90% or more (almost completely withered)) | 5 (Herbicidal rate of 90% or more (almost completely withered)) | 5 (Herbicidal rate of 90% or more (almost completely withered)) | 5 (Herbicidal rate of 90% or more (almost completely withered)) | 5 (Herbicidal rate of 90% or more (almost completely withered)) | 
